Measurements reported in patent US10047105B2, “Gyrase inhibitors” (Merck Sharp & Dohme Corp., priority 2009, dated 2018).
In brackets after ≈: the same amount, converted by molar mass.

Legend:
S. aureus ATCC 13709 = experiment: MIC, antibacterial potency, S. aureus; assay type: cell-based
S. pneumoniae ATCC 51916 = experiment: MIC, S. pneumoniae; assay type: cell-based
[1] = S. pneumoniae (Spn52), in µg/mL

SMILES	MIC, SA (S. aureus ATCC 13709; S. aureus) [µg/mL]	MIC Spn52 (S. pneumoniae ATCC 51916; S. pneumoniae) [µg/mL]	MIC, SA (S. aureus ATCC 13709; S. aureus (SA), in µg/mL)	MIC Spn52 (S. pneumoniae ATCC 51916; [1])
CCc1[nH]c2nc(Nc3cnc4c(c3)nnn4C(C)C)nc(N3CC(O)C3)c2c1Cl.O=C(O)C(F)(F)F [700,525]	> 64	> 64		
CCc1[nH]c2nc(Sc3cccc(CC(=O)O)c3)nc(Cl)c2c1Br [700,307]	4 (≈ 9.37 µM)	64 (≈ 150 µM)		
CCc1[nH]c2nc(Sc3cnc4nccnc4c3)nc(N3CCC[C@H]3CO)c2c1Cl [700,426]	1 (≈ 2.26 µM)	1 (≈ 2.26 µM)		
CCc1[nH]c2nc(Sc3ccc4ccc(C(=O)O)nc4c3)nc(N3CC(CNS(C)(=O)=O)C3)c2c1Cl [700,806]			4	16
CCc1[nH]c2nc(Sc3ccc4cc(C(=O)OC)cnc4c3)nc(N3CC[C@@H](N)C3)c2c1Cl [700,698]	≤ 0.5	8 (≈ 16.6 µM)		
CCc1[nH]c2nc(Oc3cncnc3)nc(N(C)C)c2c1Br [700,866]			1	8
CCc1[nH]c2nc(Sc3cnc4nccnc4c3)nc(N3CC(Oc4cccnc4)C3)c2c1Cl.O=C(O)C(F)(F)F.O=C(O)C(F)(F)F [700,667]	≤ 0.5	1		
CCOc1nc(Nc2cnc3nccnc3c2)nc2[nH]c(CC)c(Br)c12.O=C(O)C(F)(F)F [700,572]	4	> 8		
CCOc1nc(Sc2nc(C(=O)OC)c(C(C)C)s2)nc2[nH]c(CC)c(Br)c12 [700,301]	64 (≈ 132 µM)	> 64		
CCc1[nH]c2nc(Sc3cccc(CC(=O)OC)c3)nc(Cl)c2c1Br [700,296]	> 64	64 (≈ 145 µM)		
CCOc1nc(Nc2cnc3cccnc3n2)nc2[nH]c(CC)c(Br)c12.Cl.Cl [700,378]	> 64	> 64		
CCOc1nc(Sc2nc(C(=O)OC)c(C(C)C)s2)nc2[nH]c(CC)c(Cl)c12 [700,304]	8 (≈ 18.1 µM)	32 (≈ 72.6 µM)		
CCc1[nH]c2nc(Sc3nc(C(=O)O)cs3)nc(N(C)C)c2c1Cl.O=C(O)C(F)(F)F [700,407]	> 64	> 64		
CCc1[nH]c2nc(Nc3cnc4c(c3)nnn4CC3CC3)nc(N3CC(O)C3)c2c1Br.O=C(O)C(F)(F)F [700,498]	16	> 64		
CCc1[nH]c2nc(Sc3nc(C(=O)O)cs3)nc(N3CC(Cc4cncnc4)C3)c2c1Cl.O=C(O)C(F)(F)F [700,318]	> 64	> 64		
CCc1[nH]c2nc(Oc3cccnc3)nc(N3CCN(c4cnccn4)CC3)c2c1Cl.O=C(O)C(F)(F)F [700,465]	8	32		
CCOc1nc(Nc2cnc3ccccc3c2)nc2[nH]c(CC)c(Br)c12.O=C(O)C(F)(F)F [700,363]	> 64	> 64		
CCc1[nH]c2nc(Sc3cnc4cccnc4c3)nc(N3CC[C@H](O)[C@H]3CO)c2c1Cl [700,659]	4 (≈ 8.75 µM)	2 (≈ 4.38 µM)		
CCc1[nH]c2nc(Sc3ccc4nc(C)cc(C(N)=O)c4c3)nc(C3CC[C@@H](N)C3)c2c1Cl (stereo partly drawn) [700,862]			>64	32
CCc1[nH]c2nc(Cn3cncn3)nc(N3CCN(C(C)=O)CC3)c2c1Br [700,374]	> 64	> 64		
CCc1[nH]c2nc(Sc3cnc4nccnc4c3)nc(N3CC(C)(NC(=O)OC(C)(C)C)C3)c2c1Cl.O=C(O)C(F)(F)F [700,629]	≤ 0.5	2		
CCc1[nH]c2nc(Sc3ccc4c(N5CC(N)C5)cc(C(=O)O)nc4c3)nc(N3CC[C@@H](N)C3)c2c1Cl [700,620]	32 (≈ 59.4 µM)	> 64		
CCOc1nc(Sc2nc(C(=O)O)c(C(C)C)s2)nc2[nH]c(CC)c(Br)c12 [700,303]	4 (≈ 8.49 µM)	32 (≈ 67.9 µM)		
CCc1[nH]c2nc(Sc3cnc(N)nc3)nc(N3CC4CCNC4C3)c2c1Cl (stereo not drawn) [700,803]			8	16
CCc1[nH]c2nc(Sc3cnc4nccnc4c3)nc(N3CC(N(C)C(=O)OC(C)(C)C)C3)c2c1Cl.O=C(O)C(F)(F)F [700,601]	≤ 0.5	2		
CCc1[nH]c2nc(Sc3cnc4cccnc4c3)nc(N3C[C@H](C4CCCCC4)[C@@H](N)C3)c2c1Cl [700,890]			2	4
CCc1[nH]c2nc(Sc3cncnc3)nc(N3CC[C@@H](N)C3)c2c1Cl [700,783]	8 (≈ 21.3 µM)	16 (≈ 42.6 µM)		
CCc1[nH]c2nc(Sc3cc(OC)c4c(N)nc(C)nc4c3)nc(N3CC[C@@H](N)C3)c2c1Cl [700,863]			8	8
CCc1[nH]c2nc(Sc3cc(=O)[nH]c(=O)[nH]3)nc(N3CC4CNC4C3)c2c1Cl.O=C(O)C(F)(F)F (stereo not drawn) [700,627]	4	16		
CCc1[nH]c2nc(Sc3cnc4nccnc4c3)nc(N3CC(CNC(=O)C4CCC(O)CC4)C3)c2c1Cl (stereo not drawn) [700,521]	1 (≈ 1.81 µM)	2 (≈ 3.62 µM)		
